Data: patent US8168619B1, “Hormonal composition based on a progestational agent and an oestrogen and use thereof” (Laboratoire Theramex, priority 1999, dated 2012)
Read-outs that look alike come from different tables or passages of the source.

What was measured:
menopausal women [1] = experiment: Sequential estrogen-progestative therapy: interval before periods after therapy is interrupted; type: in vivo; conditions: Day 13-22, with 30 μg ethinyl estradiol
Experimental: (§1) Menopausal women, whether naturally or as the result of surgery, were subjected to a sequential estrogen-progestative therapy. From Day 1 to Day 12 they received 30 μg of ethinyl estradiol and then, from Day 13 to Day 22, the same dose of ethinyl estradiol associated with different doses of nomegestrol acetate or chlormadinone acetate. The doses were as follows:
(§2) The number of women was between 2 and 11, depending on the group. There was then a therapeutic pause of 7 days followed by a second treatment cycle.
(§3) The parameters taken into account were as follows: • the interval before periods commenced after the therapy had been interrupted, following the first and second treatment cycles; • the histological appearance of the endometrium recovered in a biopsy carried out between Day 17 and Day 20 of the second cycle.

endometrial cells = experiment: Sequential estrogen-progestative therapy: histological appearance of endometrium biopsy; type: in vivo, women; conditions: for Number of mitoses (% of section in which mitoses were present), Glands: with 30 μg ethinyl estradiol, biopsy Day 17-20 of second cycle
Experimental: as §1, §2, §3

menopausal women [2] = experiment: Continuous combined estradiol + nomegestrol acetate, 6 months: genital bleeding; type: in vivo
Experimental: (§4) A trial was carried out to study the effects on the endometrium of the continuous combined association of an oral estradiol dose equivalent to 1.5 mg and various doses of nomegestrol acetate.
(§5) This consisted in the treatment for 6 consecutive months of 179 women who had been menopausal for at least 3 years, with 1.5 mg per day of estradiol combined continuously with 4 different doses of nomegestrol acetate: 5 mg/day (n=47); 2.5 mg/day (n=42); 1.25 mg/day (n=43) and 0.625 mg/day (n=47).
(§6) The impact of these four associations on the endometrium was evaluated by recording the characteristics of genital bleeding, measuring the thickness of the endometrium by endovaginal echography before and at the end of the therapy, and by carrying out a biopsy of the endometrium before and at the end of the therapy.

endometrium [3] = experiment: Continuous combined estradiol + nomegestrol acetate, 6 months: endometrial thickness by endovaginal echography; type: in vivo, women; conditions: 6 months continuous
Experimental: as §4, §5, §6

endometrium [4] = experiment: Continuous combined estradiol + nomegestrol acetate, 6 months: biopsy of the endometrium; type: in vivo, women
Experimental: as §4, §5, §6

endometrium [5] = conditions: cited from earlier work
[6] = doses higher than those of the application, prolonged treatments; cited from earlier work
endometrium [7] = experiment: Dose inducing transformation of the endometrium (literature); type: in vivo; conditions: NEUMANN; reference progestative norgestrel (=1)
Text: (§7) 2) Apart from the above, it would be reasonable to think that the doses claimed should be based on data from clinical pharmacology and/or clinical data previously published and commonly accepted. Now, if the doses defined as in the PLUNKETT patents are considered, it is easy to see that in most cases the active doses published already a long time ago, i.e. before the said patents were filed (NEUMANN, 1977) or more recently (KUHL, 1996), are very coherent but only rarely lie within the dose ranges claimed in the patents in the name of PLUNKETT (Table 2).

[8] = Dose producing an adequate delay in the onset of periods (literature); type: in vivo; conditions: NEUMANN; reference progestative norgestrel (=1)
Text: as §7

ovulation [9] = experiment: Dose inhibiting ovulation (literature); type: in vivo; conditions: NEUMANN; reference progestative norgestrel (=1)
Text: as §7

[10] = Dose having a contraceptive effect (literature); type: in vivo; conditions: NEUMANN; reference progestative norgestrel (=1)
Text: as §7

endometrium [11] = conditions: NEUMANN publication; cited from earlier work
[12] = NEUMANN publication; cited from earlier work
ovulation [13] = conditions: NEUMANN publication; cited from earlier work
[14] = NEUMANN publication; cited from earlier work; remark: listed apart in the source
[15] = NOMAC 0.625 mg/day + estradiol (2 mg estradiol valerate)
[16] = NOMAC 1.25 mg/day + estradiol (2 mg estradiol valerate)
[17] = NOMAC 2.5 mg/day + estradiol (2 mg estradiol valerate)
[18] = NOMAC 5 mg/day + estradiol (2 mg estradiol valerate)
[19] = NOMAC 0.625 mg/day (n = 32) + estradiol (2 mg estradiol valerate)
[20] = NOMAC 1.25 mg/day (n = 33) + estradiol (2 mg estradiol valerate)
[21] = NOMAC 2.5 mg/day (n = 34) + estradiol (2 mg estradiol valerate)
[22] = NOMAC 5 mg/day (n = 40) + estradiol (2 mg estradiol valerate)

With `CC(=O)O[C@]1(C(C)=O)CC[C@H]2[C@@H]3C=C(C)C4=CC(=O)CC[C@@H]4[C@H]3CC[C@@]21C` [Nomegestrol acetate, nomegestrol acetate] the “Interval before the appearance of periods after the therapy is discontinued” value (“Interval before the appearance” below) (menopausal women [1]; 0.1 mg/day) was -0.5 ± 1.5 days, the “Interval before the appearance” value (menopausal women [1]; 0.25 mg/day) was -0.5 ± 0.5 days and the “Interval before the appearance” value (menopausal women [1]; 0.5 mg/day) was 1.5 ± 0.5 days. For the same compound, the “Interval before the appearance” value (menopausal women [1]; 1.0 mg/day) was 2.7 ± 0.2 days, the “Interval before the appearance” value (menopausal women [1]; 2.5 mg/day) was 3.2 ± 0.2 days and the “Interval before the appearance” value (menopausal women [1]; 5 mg/day) was 4.3 ± 0.4 days. For the same compound, the “Interval before the appearance” value (menopausal women [1]; 10 mg/day) was 3.8 ± 0.8 days, the “Number of mitoses (% of section in which mitoses were present), Glands” value (endometrial cells; 0.1 mg/day) was 50% and the “Number of mitoses (% of section in which mitoses were present), Glands” value (endometrial cells; 0.25 mg/day) was 50%. For the same compound, the “Number of mitoses (% of section in which mitoses were present), Glands” value (endometrial cells; 0.5 mg/day) was 0%, the “Number of mitoses (% of section in which mitoses were present), Glands” value (endometrial cells; 1 mg/day) was 0% and the “Number of mitoses (% of section in which mitoses were present), Glands” value (endometrial cells; 2 mg/day) was 0%. The “Number of mitoses (% of section in which mitoses were present), Glands” value (endometrial cells; 2.5 mg/day) was 0%, the “Number of mitoses (% of section in which mitoses were present), Glands” value (endometrial cells; 5 mg/day) was 0% and the “Number of mitoses (% of section in which mitoses were present), Glands” value (endometrial cells; 10 mg/day) was 30%. For the same compound, the “Dose at which mitosis no longer takes place in glandular cells” value (endometrial cells; sequential therapy with 30 μg ethinyl estradiol) was no less than 0.5 mg/day, the “Percentage of women who showed no genital bleeding at all throughout the therapy” value (menopausal women [2]; 0.625 mg/day + 1.5 mg/day estradiol) was 42.5% and the “Percentage of women who showed no genital bleeding at all throughout the therapy” value (menopausal women [2]; 1.25 mg/day + 1.5 mg/day estradiol) was 58.1%. For the same compound, the “Percentage of women who showed no genital bleeding at all throughout the therapy” value (menopausal women [2]; 2.5 mg/day + 1.5 mg/day estradiol) was 52.4%, the “Percentage of women who showed no genital bleeding at all throughout the therapy” value (menopausal women [2]; 5 mg/day + 1.5 mg/day estradiol) was 68.1% and the “Mean thickness at the end of the treatment” value (“Mean thickness at the end” below) (endometrium [3]; [15]) was 3.18 mm. For the same compound, the “Mean thickness increase under the treatment” value (“Mean thickness increase” for short) (endometrium [3]; [15]) was 0.39 mm, the “Mean thickness at the end” value (endometrium [3]; [16]) was 4.05 mm and the “Mean thickness increase” value (endometrium [3]; [16]) was 1.12 mm. For the same compound, the “Mean thickness at the end” value (endometrium [3]; [17]) was 3.93 mm, the “Mean thickness increase” value (endometrium [3]; [17]) was 1.36 mm and the “Mean thickness at the end” value (endometrium [3]; [18]) was 3.83 mm. The “Mean thickness increase” value (endometrium [3]; NOMAC 5 mg/day + estradiol (2 mg estradiol valerate), listed as NOMAC) was 1.57 mm, the “Mean thickness increase” value (endometrium [3]; NOMAC 5 mg/day + estradiol (2 mg estradiol valerate), listed as nomegestrol acetate) was 1.56 mm and the “Absence of endometrium, number of women” value (endometrium [4]; [19]) was 5. For the same compound, the “Atrophic endometrium, number of women” value (endometrium [4]; [19]) was 19, the “Polyps, number of women” value (endometrium [4]; [19]) was 0 and the “Secretory endometrium, number of women” value (endometrium [4]; [19]) was 8. For the same compound, the “Absence of endometrium, percentage” value (endometrium [4]; [15]) was “(15.6) percentage”, the “Atrophic endometrium, percentage” value (endometrium [4]; [15]) was “(59.4) percentage” and the “Secretory endometrium, percentage” value (endometrium [4]; [15]) was “(25.0) percentage”. The “Absence of endometrium, number of women” value (endometrium [4]; [20]) was 10, the “Atrophic endometrium, number of women” value (endometrium [4]; [20]) was 10 and the “Polyps, number of women” value (endometrium [4]; [20]) was 1. The “Secretory endometrium, number of women” value (endometrium [4]; [20]) was 12, the “Absence of endometrium, percentage” value (endometrium [4]; [16]) was “(30.3) percentage” and the “Atrophic endometrium, percentage” value (endometrium [4]; [16]) was “(30.3) percentage”. The “Polyps, percentage” value (endometrium [4]; [16]) was “(3.0) percentage”, the “Secretory endometrium, percentage” value (endometrium [4]; [16]) was “(36.4) percentage” and the “Absence of endometrium, number of women” value (endometrium [4]; [21]) was 3. The “Atrophic endometrium, number of women” value (endometrium [4]; [21]) was 8, the “Polyps, number of women” value (endometrium [4]; [21]) was 1 and the “Secretory endometrium, number of women” value (endometrium [4]; [21]) was 22. For the same compound, the “Absence of endometrium, percentage” value (endometrium [4]; [17]) was “(8.8) percentage”, the “Atrophic endometrium, percentage” value (endometrium [4]; [17]) was “(23.5) percentage” and the “Polyps, percentage” value (endometrium [4]; [17]) was “(2.9) percentage”. For the same compound, the “Secretory endometrium, percentage” value (endometrium [4]; [17]) was “(64.7) percentage”, the “Absence of endometrium, number of women” value (endometrium [4]; [22]) was 3 and the “Atrophic endometrium, number of women” value (endometrium [4]; [22]) was 3. The “Polyps, number of women” value (endometrium [4]; [22]) was 0, the “Secretory endometrium, number of women” value (endometrium [4]; [22]) was 34 and the “Absence of endometrium, percentage” value (endometrium [4]; [18]) was “(7.5) percentage”. For the same compound, the “Atrophic endometrium, percentage” value (endometrium [4]; [18]) was “(7.5) percentage”, the “Secretory endometrium, percentage” value (endometrium [4]; [18]) was “(85.0) percentage” and the Endometrial hyperplasia (endometrium [5]; 5 mg/day for 12 days per cycle, with various estrogens, 150 women over 1 year (THOMAS et al. 1993)) was “makes it possible to prevent endometrial hyperplasia”. For the same compound, the Endometrial hyperplasia (endometrium [5]; 5 mg/day for 14 days per cycle, women treated with percutaneous estradiol (BERNARD et al. 1994)) was “absence of hyperplasia was confirmed” and the “Tolerance: effect on lipids profile, tolerance to glucides, arterial pressure, coagulation factors” value [6] was “no effect on the lipids profile, the tolerance to glucides, the arterial pressure and the coagulation factors”.

For `C#CC1(O)CC[C@H]2[C@@H]3CCC4=CC(=O)CC[C@@H]4[C@H]3CC[C@@]21CC` (stereo partly shown) [Norgestrel], the “Dose ratio, Endometrium (1)” value (endometrium [7]) was 1.0, the “Dose ratio, Menstruation (2)” value [8] was 1.0 and the “Dose ratio, Ovulation (3)” value (ovulation [9]) was 1.0. For the same compound, the “Dose ratio, Contraception (4)” value [10] was 1.0, the “Dose necessary to induce transformation of the endometrium (1)” value (endometrium [11]) was 1200 µg/day and the “Dose necessary to produce an adequate delay in the onset of periods (2), Menstruation” value [12] was 2000 µg/day. The “Dose necessary to inhibit ovulation (3)” value (ovulation [13]) was 100 µg/day and the “Dose necessary to have a contraceptive effect (4)” value [14] was 250 µg/day.
